pIC50: −log10 of the molar value.
Key:
[1] = system: MCF10A cells expressing HER2 G778dupGSP; experiment: MCF10A cell viability, HER2 G778dupGSP; type: cell-based; conditions: Homo sapiens, MCF-10A, 72 hours
Description: (§1) Cell Viability Assay and IC50 Estimation: Cell viability was determined using the Cell Titer Glo assay (Promega) as previously described (Robichaux et al., 2018). Briefly, 2000-3000 cells per well were plated in 384-well plates (Greiner Bio-One) in technical triplicate. Cells were treated with seven different concentrations of tyrosine kinase inhibitors or vehicle alone at a final volume of 40 μL per well. After 3 days, 11μL of Cell Titer Glo was added to each well. Plates were shaken for 15 minutes, and bioluminescence was determined using a FLUOstar OPTIMA multi-mode micro-plate reader (BMG LABTECH). Bioluminescence values were normalized to DMSO treated cells, and normalized values were plotted in GraphPad Prism using non-linear regression fit to normalized data with a variable slope. IC50 values were calculated by GraphPad Prism at 50% inhibition.
(§2) Human Cell lines: MCF10A cells were purchased from ATCC and were cultured in DMEM/F12 media supplemented with 1% penicillin/streptomycin, 5% horse serum (sigma), 20 ng/ml EGF, […] hydrocortisone, and 10 μg/ml insulin. Stable cell lines were created by retroviral transduction, and retroviruses were generated by transfecting pBabe-Puro based vectors summarized in Table 1 (Addgene and Bioinnovatise) into Phoenix 293T-ampho cells (Orbigen) using Lipofectamine 2000 (Invitrogen). […]

[2] = system: cell surface HER2 on MCF10A cells expressing HER2 mutations; experiment: FACS of cell surface HER2 expression; type: cell-based, human; conditions: 10 nM, 24 hours, average of MCF10A HER2 mutant lines
Description: FACS: MCF10A cells overexpressing HER2 mutations were plated overnight in a 6-well plate, then treated with 10 nM poziotinib. After 24 hours, cells were washed twice with PBS, and trypsinized. Cells were then resuspended in 0.5% FBS in PBS, and stained with anti-HER2-FITC antibody from Biolegend (#324404) for 45 minutes on ice. Cells were washed with 0.5% FBS in PBS twice, and analyzed by flow cytometry. IgG and unstained controls were used for gating.

[3] = system: MCF10A cells expressing HER2 Y772dupYVMA; experiment: MCF10A cell viability, HER2 Y772dupYVMA; type: cell-based; conditions: Homo sapiens, MCF-10A, 72 hours
Description: as §1, §2

[4] = system: HER2 Y772dupYVMA NSCLC PDX; experiment: HER2 Y772dupYVMA NSCLC PDX model; type: in vivo, NSG mice
Description: Y772dupYVMA PDX mice were purchased from Jax Labs (Model #TM01446). Fragments from tumors expressing HER2 Y772dupYVMA were inoculated into 5- to 6-week old female NSG mice (Jax Labs #005557). Mice were measured three times per week, and when tumors reached a volume of 200-300 mm^3 mice were randomized into four treatment groups: vehicle control (0.5% Methylcellulose, 0.05% Tween-80 in dH2O), 2.5 mg/kg poziotinib, 10 mg/kg T-DM1, or combination of 2.5 mg/kg poziotinib and 10 mg/kg T-DM1. Tumor volumes and body weight were measured three times per week. Mice treated with 2.5 mg/kg poziotinib received drug orally Monday-Friday (5 days per week). Mice treated with 10 mg/kg T-DM1 received one intravenous (IV) dose of T-DM1 on the day of randomization. Mice treated with combination poziotinib and T-DM1 received one IV dose of T-DM1 and began 2.5 mg/kg poziotinib five days per week, 3 days after the dose of T-DM1. Mice received a holiday from dosing if the mouse dropped in body weight by greater than 10% or if body weight dropped below 20 grams. Progression free survival was defined as tumor doubling from best response for two consecutive measurements. Complete regression was defined as greater than 95% reduction in tumor burden, and for mice with complete regression, tumor doubling was defined greater than 75 mm^3 for more than two consecutive measurements. Experiments were completed in agreement with Good Animal Practices and with approval from MD Anderson Cancer Center Institutional Animal Care and Use Committee (Houston, TX).

[5] = system: MCF10A HER2 mutant cell lines; experiment: MCF10A cell viability, HER2 exon 20 mutant cell lines together (average, selectivity vs HER2 WT, T-DM1 combination); type: cell-based, human
Description: as §1, with “Briefly,” for “Cell Viability Assay and IC50 Estimation: Cell viability was determined using the Cell Titer Glo assay (Promega) as previously described (Robichaux et al., 2018). Briefly,”, “slope.” for “slope. IC50 values were calculated by GraphPad Prism at 50% inhibition.”
Human Cell lines: MCF10A cells were purchased from ATCC and were cultured in DMEM/F12 media supplemented with 1% penicillin/streptomycin, 5% horse serum (sigma), 20 ng/ml EGF, […] hydrocortisone, and 10 μg/ml insulin. […] Two days after transduction, 0.5 μg/ml puromycin (Invitrogen) was added to the RPMI media. […] CW-2 cells were provided by the Riken cell line database under MTA, and were maintained in RPMI containing 10% FBS and 1% penicillin/streptomycin.

[6] = system: CW-2 colorectal cell xenograft (HER2 L755S); experiment: CW-2 xenograft mouse model; type: in vivo, nu/nu nude mice; conditions: day 21, 5 mg/kg, 5 days/week
Description: In vivo xenograft studies: CW-2 cell line xenografts were created by injecting 1×10^6 cells in 50% matrigel into 6 week old female nu/nu nude mice. When tumors reached 350 mm^3 mice were randomized into 4 groups: 20 mg/kg afatinib, 5 mg/kg poziotinib, 30 mg/kg neratinib, or vehicle control (0.5% Methylcellulose, 2% Tween-80 in dH2O). Tumor volumes were measured three times per week. Mice received drug Monday-Friday (5 days per week), but began dosing on Wednesday allowing for a 2 day holiday after the first 3 days of dosing.

p-HER2 = experiment: Western blot of p-HER2 in MCF10A HER2 G776delinsVC cells; type: cell-based, human; conditions: 10 nM, 2 hours treatment
Description: Western Blotting: For Western blotting, cells were washed in PBS and lysed in RIPPA lysis buffer (ThermoFisher) and protease inhibitor cocktail tablets (Roche). Protein (30-40 μg) was loaded into gels purchased from BioRad. BioRad semi-dry transfer was used and then probed with antibodies against, pHER2, HER2, pPI3K, PI3K, p-AKT, AKT, p-ERK1/2, and ERK1/2 (1:1000; Cell Signaling). Blots were probed with antibodies against vinculin or β-actin (Sigma-Aldrich) as a loading control, and exposed using ECL Western Blotting substrate (Promega).

[7] = MCF10A HER2 exon 20 mutants, ratio of average IC50

**Q.** Which results are given for `C=CC(=O)N1CCC(Oc2cc3c(Nc4ccc(Cl)c(Cl)c4F)ncnc3cc2OC)CC1` [poziotinib, 1-[4-[4-(3,4-dichloro-2-fluoroanilino)-7-methoxyquinazolin-6-yl]oxypiperidin-1-yl]prop-2-en-1-one]?
**A.** pIC50 [1]: 8.35; increase of cell surface HER2 expression [2]: 2 fold; pIC50 [3]: 8.08; mice with complete tumor regression ([4]; day 15 (best response), poziotinib 2.5 mg/kg, T-DM1 10 mg/kg single dose): 0/12; median PFS (mPFS), time to tumor doubling from best response ([4]; poziotinib 2.5 mg/kg 5 days per week, T-DM1 10 mg/kg single IV dose): 15 days; times more potent than neratinib [5, 7]: 19 times; times more potent than tarloxotinib-TKI [5, 7]: 2.6 times; selectivity index (SI, IC50 value mutant/IC50 value WT) ([5]; MCF10A HER2 mutant vs HER2 WT cell lines): 0.028; reduction in tumor volume compared to the vehicle treated group [6]: 58%; inhibition of p-HER2 (p-HER2): completely inhibits

Source: US12629375B2, “Compounds with anti-tumor activity against cancer cells bearing HER2 exon 21 insertions” (Board of Regents, The University of Texas System, priority 2019, dated 2026)
